Source: ChEMBL document CHEMBL1201862, “PubChem BioAssay data set” (2004)
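Test compounds were applied to cells in 96-well plates for 48 hours at 5 doses. At the GI50, growth is halved.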 Active and inactive are the calls of the source. No stated cut-off is given here; in the data, active = GI50 up to about 1.1 µM and inactive = higher. Where a SMILES comes first, the peptide text is derived from it. [ ]: non-standard residue; d: D form. The star is where a group is joined. ξ: configuration not given here. ξF = NC(Cc1ccccc1)C(=O)O; Cbz = O=C(OCc1ccccc1)*; Aib = CC(C)(N)C(=O)O; NHNH2 = NN*

How the values were obtained:
Assay in all cases: NCI-60 cell line screen, 48 h
SNB-75 = system: SNB-75
NCI/ADR-RES = system: NCI/ADR-RES
Hs-578T = system: Hs-578T
UO-31 = system: UO-31
SW-620 = system: SW-620
CCRF-CEM = system: CCRF-CEM
TK-10 = system: TK-10
M14 = system: M14
DU-145 = system: DU-145
U-251 = system: U-251
NCI-H226 = system: NCI-H226
SR = system: SR
MCF7 = system: MCF7
SF-539 = system: SF-539
786-0 = system: 786-0
OVCAR-8 = system: OVCAR-8
K562 = system: K562
NCI-H522 = system: NCI-H522
EKVX = system: EKVX
UACC-62 = system: UACC-62
SK-MEL-2 = system: SK-MEL-2
CAKI-1 = system: CAKI-1
COLO 205 = system: COLO 205
PC-3 = system: PC-3
RPMI-8226 = system: RPMI-8226
MOLT-4 = system: MOLT-4
SF-268 = system: SF-268
UACC-257 = system: UACC-257
A549 = system: A549
NCI-H460 = system: NCI-H460
HCT-116 = system: HCT-116
HOP-92 = system: HOP-92
IGROV-1 = system: IGROV-1
MDA-MB-231 = system: MDA-MB-231
OVCAR-5 = system: OVCAR-5
Malme-3M = system: Malme-3M
SK-OV-3 = system: SK-OV-3
KM12 = system: KM12
HCT-15 = system: HCT-15
ACHN = system: ACHN
T47D = system: T47D
BT-549 = system: BT-549
SF-295 = system: SF-295
MDA-MB-435 = system: MDA-MB-435
SN12C = system: SN12C
SNB-19 = system: SNB-19
NCI-H23 = system: NCI-H23
RXF 393 = system: RXF 393
HT-29 = system: HT-29
MDA-N = system: MDA-N
SK-MEL-5 = system: SK-MEL-5
OVCAR-3 = system: OVCAR-3
OVCAR-4 = system: OVCAR-4
A498 = system: A498
LOX IMVI = system: LOX IMVI
HOP-62 = system: HOP-62
SK-MEL-28 = system: SK-MEL-28
HCC 2998 = system: HCC 2998

Structure (SMILES): NC1(CCNC(=O)c2ccccc2)CCN(C(=O)c2ccccc2)CC1
- GI50 (SNB-75): 0.548 µM (active)
- GI50 (NCI/ADR-RES): > 100 µM (inactive)
- GI50 (Hs-578T): > 100 µM (inactive)
- GI50 (UO-31): > 100 µM (inactive)
- GI50 (SW-620): > 100 µM (inactive)
- GI50 (CCRF-CEM): > 100 µM (inactive)
- GI50 (TK-10): > 100 µM (inactive)
- GI50 (M14): > 100 µM (inactive)
- GI50 (DU-145): > 100 µM (inactive)
- GI50 (U-251): > 100 µM (inactive)
- GI50 (NCI-H226): > 100 µM (inactive)
- GI50 (SR): > 100 µM (inactive)
- GI50 (MCF7): > 100 µM (inactive)
- GI50 (SF-539): > 100 µM (inactive)
- GI50 (786-0): > 100 µM (inactive)
- GI50 (OVCAR-8): > 100 µM (inactive)
- GI50 (K562): > 100 µM (inactive)
- GI50 (NCI-H522): 3.67 µM (inactive)
- GI50 (EKVX): > 100 µM (inactive)
- GI50 (UACC-62): > 100 µM (inactive)
- GI50 (SK-MEL-2): 34.4 µM (inactive)
- GI50 (CAKI-1): > 100 µM (inactive)
- GI50 (COLO 205): 41.7 µM (inactive)
- GI50 (PC-3): > 100 µM (inactive)
- GI50 (RPMI-8226): > 100 µM (inactive)
- GI50 (MOLT-4): > 100 µM (inactive)
- GI50 (SF-268): > 100 µM (inactive)
- GI50 (UACC-257): > 100 µM (inactive)
- GI50 (A549): > 100 µM (inactive)
- GI50 (NCI-H460): > 100 µM (inactive)
- GI50 (HCT-116): > 100 µM (inactive)
- GI50 (HOP-92): 50.7 µM (inactive)
- GI50 (IGROV-1): > 100 µM (inactive)
- GI50 (MDA-MB-231): > 10 µM (inactive)
- GI50 (OVCAR-5): > 100 µM (inactive)
- GI50 (Malme-3M): 29.2 µM (inactive)
- GI50 (SK-OV-3): > 100 µM (inactive)
- GI50 (KM12): > 100 µM (inactive)
- GI50 (HCT-15): > 100 µM
- GI50 (ACHN): > 100 µM (inactive)
- GI50 (T47D): > 100 µM (inactive)
- GI50 (BT-549): > 100 µM (inactive)
- GI50 (SF-295): > 100 µM (inactive)
- GI50 (MDA-MB-435): > 100 µM (inactive)
- GI50 (SN12C): > 100 µM (inactive)
- GI50 (SNB-19): > 100 µM (inactive)
- GI50 (NCI-H23): > 100 µM (inactive)
- GI50 (RXF 393): > 100 µM (inactive)
- GI50 (HT-29): > 100 µM (inactive)
- GI50 (MDA-N): > 100 µM (inactive)
- GI50 (SK-MEL-5): > 100 µM (inactive)

Structure (SMILES): CC(C)(NC(=O)OCc1ccccc1)C(=O)NC(Cc1ccccc1)C(=O)NN (centres undefined) (Cbz-[Aib]-[ξF]-NHNH2)
- GI50 (SNB-75): > 100 µM (inactive)
- GI50 (NCI/ADR-RES): > 100 µM (inactive)
- GI50 (Hs-578T): > 100 µM (inactive)
- GI50 (UO-31): > 100 µM (inactive)
- GI50 (SW-620): > 100 µM (inactive)
- GI50 (CCRF-CEM): > 100 µM (inactive)
- GI50 (TK-10): > 100 µM (inactive)
- GI50 (M14): > 100 µM (inactive)
- GI50 (DU-145): > 100 µM (inactive)
- GI50 (OVCAR-3): > 100 µM (inactive)
- GI50 (U-251): > 100 µM (inactive)
- GI50 (NCI-H226): > 100 µM (inactive)
- GI50 (OVCAR-4): > 100 µM (inactive)
- GI50 (A498): > 100 µM (inactive)
- GI50 (MCF7): > 100 µM (inactive)
- GI50 (SF-539): > 100 µM (inactive)
- GI50 (LOX IMVI): > 100 µM (inactive)
- GI50 (786-0): > 100 µM (inactive)
- GI50 (OVCAR-8): > 100 µM (inactive)
- GI50 (HOP-62): > 100 µM (inactive)
- GI50 (K562): > 100 µM (inactive)
- GI50 (NCI-H522): > 100 µM (inactive)
- GI50 (EKVX): > 100 µM (inactive)
- GI50 (UACC-62): > 100 µM (inactive)
- GI50 (SK-MEL-2): > 100 µM (inactive)
- GI50 (CAKI-1): > 100 µM (inactive)
- GI50 (COLO 205): > 100 µM (inactive)
- GI50 (PC-3): > 100 µM (inactive)
- GI50 (RPMI-8226): > 100 µM (inactive)
- GI50 (MOLT-4): > 100 µM (inactive)
- GI50 (SF-268): > 100 µM (inactive)
- GI50 (UACC-257): > 100 µM (inactive)
- GI50 (A549): > 100 µM (inactive)
- GI50 (NCI-H460): > 100 µM (inactive)
- GI50 (HOP-92): > 100 µM (inactive)
- GI50 (IGROV-1): > 100 µM (inactive)
- GI50 (MDA-MB-231): > 100 µM (inactive)
- GI50 (OVCAR-5): > 100 µM (inactive)
- GI50 (Malme-3M): > 100 µM (inactive)
- GI50 (SK-OV-3): > 100 µM (inactive)
- GI50 (KM12): > 100 µM (inactive)
- GI50 (HCT-15): > 100 µM
- GI50 (ACHN): > 100 µM (inactive)
- GI50 (T47D): > 100 µM (inactive)
- GI50 (BT-549): > 100 µM (inactive)
- GI50 (SF-295): > 100 µM (inactive)
- GI50 (MDA-MB-435): > 100 µM (inactive)
- GI50 (SN12C): > 100 µM (inactive)
- GI50 (SNB-19): > 100 µM (inactive)
- GI50 (NCI-H23): > 100 µM (inactive)
- GI50 (SK-MEL-28): > 100 µM (inactive)
- GI50 (RXF 393): > 100 µM (inactive)
- GI50 (HT-29): > 100 µM (inactive)
- GI50 (MDA-N): 42.1 µM (inactive)
- GI50 (SK-MEL-5): > 100 µM (inactive)

Structure (SMILES): Nc1ccc(/N=N/c2c(S(=O)(=O)O)cc3ccccc3c2S(=O)(=O)O)cc1
- GI50 (SNB-75): > 100 µM (inactive)
- GI50 (NCI/ADR-RES): > 100 µM (inactive)
- GI50 (Hs-578T): > 100 µM (inactive)
- GI50 (UO-31): > 100 µM (inactive)
- GI50 (SW-620): > 100 µM (inactive)
- GI50 (CCRF-CEM): 34.8 µM (inactive)
- GI50 (TK-10): > 100 µM (inactive)
- GI50 (M14): > 100 µM (inactive)
- GI50 (DU-145): > 100 µM (inactive)
- GI50 (OVCAR-3): > 100 µM (inactive)
- GI50 (U-251): > 100 µM (inactive)
- GI50 (NCI-H226): > 100 µM (inactive)
- GI50 (OVCAR-4): > 100 µM (inactive)
- GI50 (A498): > 100 µM (inactive)
- GI50 (SR): > 100 µM (inactive)
- GI50 (LOX IMVI): > 100 µM (inactive)
- GI50 (786-0): > 100 µM (inactive)
- GI50 (OVCAR-8): > 100 µM (inactive)
- GI50 (HOP-62): > 100 µM (inactive)
- GI50 (K562): > 100 µM (inactive)
- GI50 (NCI-H522): > 100 µM (inactive)
- GI50 (HCC 2998): > 100 µM (inactive)
- GI50 (EKVX): > 100 µM (inactive)
- GI50 (UACC-62): > 100 µM (inactive)
- GI50 (SK-MEL-2): > 100 µM (inactive)
- GI50 (CAKI-1): > 100 µM (inactive)
- GI50 (PC-3): > 100 µM (inactive)
- GI50 (MOLT-4): > 100 µM (inactive)
- GI50 (SF-268): > 100 µM (inactive)
- GI50 (UACC-257): > 100 µM (inactive)
- GI50 (A549): > 100 µM (inactive)
- GI50 (NCI-H460): > 100 µM (inactive)
- GI50 (HCT-116): > 100 µM (inactive)
- GI50 (HOP-92): > 100 µM (inactive)
- GI50 (IGROV-1): > 100 µM (inactive)
- GI50 (MDA-MB-231): > 100 µM (inactive)
- GI50 (OVCAR-5): > 100 µM (inactive)
- GI50 (Malme-3M): > 100 µM (inactive)
- GI50 (KM12): > 100 µM (inactive)
- GI50 (HCT-15): > 100 µM
- GI50 (ACHN): > 100 µM (inactive)
- GI50 (T47D): > 100 µM (inactive)
- GI50 (BT-549): > 100 µM (inactive)
- GI50 (SF-295): > 100 µM (inactive)
- GI50 (MDA-MB-435): > 100 µM (inactive)
- GI50 (SN12C): > 100 µM (inactive)
- GI50 (SNB-19): > 100 µM (inactive)
- GI50 (NCI-H23): > 100 µM (inactive)
- GI50 (SK-MEL-28): > 100 µM (inactive)
- GI50 (RXF 393): > 100 µM (inactive)
- GI50 (HT-29): > 100 µM (inactive)
- GI50 (MDA-N): > 100 µM (inactive)
- GI50 (SK-MEL-5): > 100 µM (inactive)
